System: 616215-338-R-J1-PDC complex spheroid viability
Assay: Anticancer human tumor 616215-338-R-J1-PDC patient-derived colon adenocarcinoma cell line growth inhibition [RAS]
Conditions: for IC50: curve of first compound; for viability, T/C: stronger effect = lower value; active means viability on the fitted dose curve at most 10% of control; inactive means the rest
How it was run: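 Agents were tested in combination matrices in half-log decrements from a top concentration at or near clinical Cmax (10 microM if undetermined). Targets were multi-cell spheroids of tumour lines plus HUVEC and MSC stromal cells.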

[1] = second compound 0.000949 µM, first compound 0.0316 µM
[2] = second compound 0.000949 µM, first compound 0.1 µM
[3] = second compound 0.000949 µM, first compound 0.316 µM
[4] = second compound 0.000949 µM, first compound 1 µM
[5] = second compound 0.000949 µM, first compound 3.16 µM
[6] = second compound 0.000949 µM, first compound 10 µM
[7] = second compound 0.003 µM, first compound 0.0316 µM
[8] = second compound 0.003 µM, first compound 0.1 µM
[9] = second compound 0.003 µM, first compound 0.316 µM
[10] = second compound 0.003 µM, first compound 1 µM
[11] = second compound 0.003 µM, first compound 3.16 µM
[12] = second compound 0.003 µM, first compound 10 µM
[13] = second compound 0.00949 µM, first compound 0.0316 µM
[14] = second compound 0.00949 µM, first compound 0.1 µM
[15] = second compound 0.00949 µM, first compound 0.316 µM
[16] = second compound 0.00949 µM, first compound 1 µM
[17] = second compound 0.00949 µM, first compound 3.16 µM
[18] = second compound 0.00949 µM, first compound 10 µM
[19] = second compound 0.03 µM, first compound 0.0316 µM
[20] = second compound 0.03 µM, first compound 0.1 µM
[21] = second compound 0.03 µM, first compound 0.316 µM
[22] = second compound 0.03 µM, first compound 1 µM
[23] = second compound 0.03 µM, first compound 3.16 µM
[24] = second compound 0.03 µM, first compound 10 µM
[25] = second compound 0.0949 µM, first compound 0.0316 µM
[26] = second compound 0.0949 µM, first compound 0.1 µM
[27] = second compound 0.0949 µM, first compound 0.316 µM
[28] = second compound 0.0949 µM, first compound 1 µM
[29] = second compound 0.0949 µM, first compound 3.16 µM
[30] = second compound 0.0949 µM, first compound 10 µM
[31] = second compound 0.3 µM, first compound 0.0316 µM
[32] = second compound 0.3 µM, first compound 0.1 µM
[33] = second compound 0.3 µM, first compound 0.316 µM
[34] = second compound 0.3 µM, first compound 1 µM
[35] = second compound 0.3 µM, first compound 3.16 µM
[36] = second compound 0.3 µM, first compound 10 µM
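Further: spheroids exposed to agents for seven days before viability readout.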
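Wherever viability, T/C is given: 100% = DMSO vehicle control viability.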

CC(=O)OC12COC1CC(O)C1(C)C(=O)C(O)C3=C(C)C(OC(=O)C(O)C(NC(=O)OC(C)(C)C)c4ccccc4)CC(O)(C(OC(=O)c4ccccc4)C21)C3(C)C (stereo not given) + CCn1c(-c2cc(N3CCN(C)CC3)cnc2C(C)OC)c2c3cc(ccc31)-c1csc(n1)CC(NC(=O)C1CC1C)C(=O)N1CCCC(N1)C(=O)OCC(C)(C)C2
inactive: viability, T/C [1] 27.1% | viability, T/C [2] 20.3% | viability, T/C [3] 18.9% | viability, T/C [4] 19.9% | viability, T/C [5] 20.7% | viability, T/C [6] 24% | viability, T/C [7] 22.3% | viability, T/C [8] 18.3% | viability, T/C [9] 15.9% | viability, T/C [10] 19.3% | viability, T/C [11] 18.8% | viability, T/C [12] 24% | viability, T/C [13] 18.5% | viability, T/C [14] 16.4% | viability, T/C [15] 13.3% | viability, T/C [16] 12% | viability, T/C [17] 17.2% | viability, T/C [18] 18.7% | viability, T/C [19] 15.6% | viability, T/C [20] 13.4% | viability, T/C [21] 13.1% | viability, T/C [22] 13.2% | viability, T/C [23] 14.5% | viability, T/C [24] 16.8% | viability, T/C [25] 15.4% | viability, T/C [26] 12.4% | viability, T/C [27] 10.8% | viability, T/C [28] 13.4% | viability, T/C [29] 13.5% | viability, T/C [30] 14% | viability, T/C [31] 14.9% | viability, T/C [32] 13.3% | viability, T/C [33] 10.7% | viability, T/C [34] 11.9% | viability, T/C [35] 13.9% | viability, T/C [36] 16.3%
< 0.0316 µM: IC50 (second compound 0.000949 µM) | IC50 (second compound 0.003 µM) | IC50 (second compound 0.00949 µM) | IC50 (second compound 0.03 µM) | IC50 (second compound 0.0949 µM) | IC50 (second compound 0.3 µM)

CCC(CC)c1cc(NC2CCC(N)C2)n2nccc2n1 (stereo not given) + CCn1c(-c2cc(N3CCN(C)CC3)cnc2C(C)OC)c2c3cc(ccc31)-c1csc(n1)CC(NC(=O)C1CC1C)C(=O)N1CCCC(N1)C(=O)OCC(C)(C)C2
< 0.0316 µM: IC50 (second compound 0.0949 µM) | IC50 (second compound 0.3 µM)
1.88 µM: IC50 (second compound 0.003 µM)
1.83 µM: IC50 (second compound 0.000949 µM)
inactive: viability, T/C [1] 122% | viability, T/C [2] 113% | viability, T/C [3] 95% | viability, T/C [4] 105% | viability, T/C [7] 109% | viability, T/C [8] 108% | viability, T/C [9] 116% | viability, T/C [10] 110% | viability, T/C [13] 80.7% | viability, T/C [14] 92.2% | viability, T/C [15] 72.6% | viability, T/C [16] 88.4% | viability, T/C [19] 50.2% | viability, T/C [20] 55.3% | viability, T/C [21] 56.5% | viability, T/C [22] 62.5% | viability, T/C [25] 41.6% | viability, T/C [26] 39.9% | viability, T/C [27] 51.1% | viability, T/C [28] 49.3% | viability, T/C [31] 30.5% | viability, T/C [32] 38.5% | viability, T/C [33] 45.7% | viability, T/C [34] 47.9%
active: viability, T/C [5] 0.4% | viability, T/C [6] 0.24% | viability, T/C [11] 0.37% | viability, T/C [12] 0.22% | viability, T/C [17] 0.29% | viability, T/C [18] 0.22% | viability, T/C [23] 0.28% | viability, T/C [24] 0.2% | viability, T/C [29] 0.28% | viability, T/C [30] 0.23% | viability, T/C [35] 0.33% | viability, T/C [36] 0.27%
1.59 µM: IC50 (second compound 0.00949 µM)
1.13 µM: IC50 (second compound 0.03 µM)

Cc1nc(N2CCC3(CC2)COC(C)C3N)c(CO)nc1Sc1ccnc(N)c1Cl (stereo not given) + CCn1c(-c2cc(N3CCN(C)CC3)cnc2C(C)OC)c2c3cc(ccc31)-c1csc(n1)CC(NC(=O)C1CC1C)C(=O)N1CCCC(N1)C(=O)OCC(C)(C)C2
1.67 µM: IC50 (second compound 0.003 µM)
< 0.0316 µM: IC50 (second compound 0.03 µM) | IC50 (second compound 0.0949 µM) | IC50 (second compound 0.3 µM)
0.214 µM: IC50 (second compound 0.00949 µM)
inactive: viability, T/C [1] 123% | viability, T/C [2] 106% | viability, T/C [3] 85.6% | viability, T/C [4] 75.6% | viability, T/C [5] 63.1% | viability, T/C [6] 61.9% | viability, T/C [7] 118% | viability, T/C [8] 92.5% | viability, T/C [9] 66.4% | viability, T/C [10] 49.7% | viability, T/C [11] 54.9% | viability, T/C [12] 39.1% | viability, T/C [13] 71% | viability, T/C [14] 55.4% | viability, T/C [15] 46.9% | viability, T/C [16] 42.6% | viability, T/C [17] 44.2% | viability, T/C [18] 38% | viability, T/C [19] 43.8% | viability, T/C [20] 47.5% | viability, T/C [21] 46.9% | viability, T/C [22] 39.9% | viability, T/C [23] 45.5% | viability, T/C [24] 36.6% | viability, T/C [25] 38.9% | viability, T/C [26] 37.5% | viability, T/C [27] 40.6% | viability, T/C [28] 40.3% | viability, T/C [29] 44.2% | viability, T/C [30] 46.6% | viability, T/C [31] 36.7% | viability, T/C [32] 40.9% | viability, T/C [33] 47.3% | viability, T/C [34] 39.1% | viability, T/C [35] 44.7% | viability, T/C [36] 37.1%
> 10 µM: IC50 (second compound 0.000949 µM)

NC1c2ccccc2OC12CCN(c1cnc3c(N4CCCc5ncccc54)n[nH]c3n1)CC2 (stereo not given) + CCn1c(-c2cc(N3CCN(C)CC3)cnc2C(C)OC)c2c3cc(ccc31)-c1csc(n1)CC(NC(=O)C1CC1C)C(=O)N1CCCC(N1)C(=O)OCC(C)(C)C2
< 0.0316 µM: IC50 (second compound 0.00949 µM) | IC50 (second compound 0.03 µM) | IC50 (second compound 0.0949 µM) | IC50 (second compound 0.3 µM)
0.228 µM: IC50 (second compound 0.003 µM)
2.24 µM: IC50 (second compound 0.000949 µM)
inactive: viability, T/C [1] 81.9% | viability, T/C [2] 69.7% | viability, T/C [3] 60% | viability, T/C [4] 55.5% | viability, T/C [5] 51.2% | viability, T/C [6] 40.2% | viability, T/C [7] 73.5% | viability, T/C [8] 60.6% | viability, T/C [9] 44.6% | viability, T/C [10] 41.9% | viability, T/C [11] 35.2% | viability, T/C [12] 37.1% | viability, T/C [13] 49.4% | viability, T/C [14] 48.4% | viability, T/C [15] 42.9% | viability, T/C [16] 42.2% | viability, T/C [17] 36.4% | viability, T/C [18] 31.1% | viability, T/C [19] 38.7% | viability, T/C [20] 34.9% | viability, T/C [21] 33.9% | viability, T/C [22] 40.1% | viability, T/C [23] 35.2% | viability, T/C [24] 30.5% | viability, T/C [25] 35.9% | viability, T/C [26] 42.6% | viability, T/C [27] 47.9% | viability, T/C [28] 42.2% | viability, T/C [29] 44.2% | viability, T/C [30] 34.6% | viability, T/C [31] 51.7% | viability, T/C [32] 40.5% | viability, T/C [33] 44.6% | viability, T/C [34] 41.1% | viability, T/C [35] 45.3% | viability, T/C [36] 32.4%

Nc1ccn(C2OC(CO)C(O)C2(F)F)c(=O)n1 (stereo not given) + CCn1c(-c2cc(N3CCN(C)CC3)cnc2C(C)OC)c2c3cc(ccc31)-c1csc(n1)CC(NC(=O)C1CC1C)C(=O)N1CCCC(N1)C(=O)OCC(C)(C)C2
< 0.00316 µM: IC50 (second compound 0.03 µM) | IC50 (second compound 0.0949 µM) | IC50 (second compound 0.3 µM)
inactive: viability, T/C (second compound 0.000949 µM, first compound 0.00316 µM) 96.2% | viability, T/C (second compound 0.000949 µM, first compound 0.01 µM) 53.7% | viability, T/C [1] 23.7% | viability, T/C [2] 13.8% | viability, T/C [3] 13.5% | viability, T/C [4] 15.7% | viability, T/C (second compound 0.003 µM, first compound 0.00316 µM) 80.8% | viability, T/C (second compound 0.003 µM, first compound 0.01 µM) 38.6% | viability, T/C [7] 20.2% | viability, T/C [8] 10.3% | viability, T/C [9] 11.4% | viability, T/C [10] 11% | viability, T/C (second compound 0.00949 µM, first compound 0.00316 µM) 52.9% | viability, T/C (second compound 0.00949 µM, first compound 0.01 µM) 28.8% | viability, T/C [13] 19.2% | viability, T/C [14] 9.65% | viability, T/C [15] 12.4% | viability, T/C [16] 10.4% | viability, T/C (second compound 0.03 µM, first compound 0.00316 µM) 33.8% | viability, T/C (second compound 0.03 µM, first compound 0.01 µM) 25.8% | viability, T/C [19] 18.5% | viability, T/C [20] 9.6% | viability, T/C (second compound 0.0949 µM, first compound 0.00316 µM) 31.6% | viability, T/C (second compound 0.0949 µM, first compound 0.01 µM) 22.4% | viability, T/C [25] 17.2% | viability, T/C [26] 7.8% | viability, T/C (second compound 0.3 µM, first compound 0.00316 µM) 37.6% | viability, T/C (second compound 0.3 µM, first compound 0.01 µM) 25.7% | viability, T/C [31] 21.4% | viability, T/C [32] 12.1%
0.00736 µM: IC50 (second compound 0.003 µM)
0.0115 µM: IC50 (second compound 0.000949 µM)
active: viability, T/C [21] 8.72% | viability, T/C [22] 9.03% | viability, T/C [27] 9.83% | viability, T/C [28] 8.16% | viability, T/C [33] 9.28% | viability, T/C [34] 8.49%
0.00362 µM: IC50 (second compound 0.00949 µM)
